In US20240125775A1, “IMMOBILIZATION AND MAGNETIC EXTRACTION OF PATHOGENS AND PATHOGEN COMPONENTS” (priority 2020, published 2024):
“Also recorded” adds a separate entry of the source. Ends that are not written are not given here.

Experiments:
[1] = test system: lipoteichonic acids (LTA); test: Binding of LTA in aqueous Ringer' solution; conditions: 0.3 mg Fe/ml, 2.5 ng/ml LTA; for LTA bound: 5 minutes at 37° C., magnet 3 minutes
Method: The binding of a further relevant toxin (from gram-positive bacteria) was also investigated with the improved particles as disclosed herein, which was not described in Karawacka et al. (2018). These experiments were performed in aqueous Ringer' solution. […] For this experiment, 2.5 ng/ml LTA were used and incubated for 5 minutes at 37° C. on a shaker at 700 rpm. Subsequently, the particles were separated magnetically for 3 minutes. […] SPION^APTES-SBA-SPP04/SPION^APTES-SBA-SPP19 could bind 0.75 ng/ml LTA and 0.97 ng/ml, respectively. Thus, a reduction of LTA by 30% and 29%, respectively, could be detected by using the improved particles SPION^APTES-SBA-SPP04/SPION^APTES-SBA-SPP19 as disclosed herein.

Staphylococcus aureus = test: Depletion of Staphylococcus aureus from aqueous medium; assay type: cell-based; conditions: for Staphylococcus aureus after separation: from 1393 CFU/ml, 0.3 mg Fe/ml, Ringer's solution; for CFU of re-plated bacteria loaded particles: re-plating, S. aureus
From the text: For testing the separation of S. aureus from a sample, particles were functionalized with the peptides SPP04 and SPP19 for this experiment. The bacterial suspension was adjusted to an OD (measured at 600 nm) of 0.13 and then diluted 1:800 with Ringer's solution. […] It could also be shown that the particles have no toxic effect on the bacteria. For Staphylococcus aureus (gram+) a reduction from 1393 CFU/ml to 27 CFU/ml for SPION^APTES-SBA-SPP04 and 73 CFU/ml for SPION^APTES-SBA-SPP19 could be achieved by separation as shown in FIG. 12.

Pseudomonas aeruginosa = test: Depletion of Pseudomonas aeruginosa from aqueous medium; assay type: cell-based; conditions: from 5320 CFU/ml, 0.3 mg Fe/ml
Method: (§1) Analogous observations are shown in FIG. 13 for the gram negative bacterium Pseudomonas aeruginosa reduction from 5320 CFU/ml to 2 CFU/ml for SPION^APTES-SBA-SPP04 and 7 CFU/ml for SPION^APTES-SBA-SPP19 could be achieved. For Serratia marcescens (gram−) a reduction from 1300 CFU/ml to 26 CFU/ml for SPION^APTES-SBA-SPP04 could be achieved as shown in FIG. 14. Redispersed particles that were plated out yielding a recovery of 1227 CFU/ml for SPION^APTES-SBA-SPP04, which is similar to the positive control.

[2] = Hydrodynamic particle size (dynamic light scattering); assay type: physicochemical; conditions: neutral pH (e.g. around 7)
Method: Dynamic light scattering (DLS) was performed with a Zetasizer Nano ZS (Malvern Panalytical, Almelo, Netherlands) to determine the hydrodynamic particle size of the NP at 25° C.in water (refractive index 1.33; viscosity 0.8872 mPa-s; backscattering mode at 173°). The same device was used to measure the particle's aqueous zeta potential with 78.5 as dielectric constant. Measurements were done in triplicate at an iron concentration of 50 μg/ml and pH of 7.4, the results were averaged.

[3] = test system: LPS (E. coli LPS O55:B5, O26:B6, O111:B4); test: LPS (endotoxin) binding, EndoZyme Recombinant Factor C Assay; conditions: 10 EU/ml LPS
Method: In order to evaluate general parameters of the concentration and incubation time with SPIONs, the inventors analysed conditions that are representative for these parameters. A high and a low particle concentration, as well as two exposure conditions were tested (agitation for 30 sec and 3 sec; particle concentration of 0.01 mg Fe/ml and 1 mg Fe/ml) were tested with the peptide exposing SPION^APTES-SBA-SPP04 and non-peptide exposing SPION^HAP. The concentration of peptide for the functionalized particles was assumed to be 0.08 μmol peptide/mg Fe, as assessed above. As other particles have been reported to bind certain amounts of LPS unspecifically, SPION^HAp are interesting for our experiments concerning this concern as a control.
Binding studies of endotoxin were performed with EndoZyme Recombinant Factor C Assay kit (Hyglos, Germany). In this kit, LPS is detected by recombinant Factor C, thus excluding possible interferences by p-glucans. Calibration curves for the three different LPSs have been prepared in endotoxin free water. SPION^APTES-SBA-SPP04 was used in this study as its efficacy has been described previously. For this experiment, we used two different iron concentrations (1 mg Fe/ml and 0.01 mg Fe/ml) and two incubation parameters (30 s at 1400 rpm and 37° C. as well as 3 s at RT). Three different LPSs were added to 200 μl of the different particle dispersions. The final concentration of LPS was set to 10 EU/ml in each tested sample. Spiking controls (8 and 5 EU/ml) were carried out to see if any interference occurred for all tested particles.
Supernatants were produced using a neodymium magnet (310 mT at separation side) for three minutes. 50 μl of each supernatant were mixed with 50 μl of the assay reagent (80% v/v assay buffer, 10% v/v substrate, 10% v/v enzyme) in black, endotoxin-free 96-well plates. The reaction was monitored for 90 minutes at 37° C. in 15 min intervals by recording the fluorescence at an excitation wavelength of 360 nm and an emission at 465 nm in a Filter-Max F5 Plate reader (Molecular Devices).

[4] = Separation of micromer^LPS (artificial gram-negative bacteria); conditions: initial 0.1 mg/ml micromer^LPS, 1 mg/ml Fe, 2 h, OD 620 nm
Method: For a better understanding of the separation process, the inventors tried to remove artificial micromers to simulate bacteria. For this, LPS coated polystyrene/polymethacrylate Micromer® particles (micromer^LPS) were used and removed from a water suspension instead of living bacteria. […] This experiment was performed by optical density measurements at 620 nm, as it is done for actual bacteria.
For this experiment micromer® particles (micromer) were incubated with endotoxin to receive endotoxin coated micromer particles (micromer^LPS). Any other polymeric particles of similar size could have been used as an alternative. It has been reported, that endotoxins stick to surfaces and can be attached to polymeric particles. Therefore, particles bearing 1 mg particles/ml was incubated with 1 μg/ml endotoxin LPS3 for 2 h at 1400 rpm. After centrifugation the particles were washed several times.
SPION^APTES-SBA-SPP04 and unmodified SPION^HAp with a Fe concentration of 1 mg/ml were incubated with 0.1 mg micromer^LPS for 2 h at 1400 rpm and 37° ° C. SPION^APTES served as a control. A calibration curve was prepared with different concentrations of micromer^LPS. The calibration samples and the magnetically decanted supernatants were measured in the reader at 620 nm absorption wavelength like it is used for the OD measurements of bacteria (Brenner et al. 2005 and Chen et al. 2011). […]

E. coli [5] = test: Magnetic separation of E. coli from aqueous medium (Ringer solution); assay type: cell-based; conditions: 5 minutes incubation, 3 minutes separation
Method: E. coli were incubated with particles for 5 minutes and then separated for 3 minutes. Supernatants were plated out. […] A reduction of the particle amount to 0.1 mg Fe/ml led to a reduced bacterial separation 170 CFUS).

Serratia marcescens = test: Depletion of Serratia marcescens from aqueous medium; assay type: cell-based
Method: as §1

E. coli [6] = test: Separation of E. coli from blood; assay type: cell-based
Method: For this experiment, E. coli was added to blood and then 0.3 mg Fe/ml particles were used to extract/separate the bacteria. Thus, the remaining bacterial load in the blood was tested as a first aspect of this experiment. Furthermore, citrate and EDTA-stabilized blood was used and compared, as EDTA is expected to hinder the binding of the peptide to the bacteria. Therefore, the depletion of bacteria is expected to be lower in EDTA-stabilized blood compared to citrate-stabilized blood. The overall bacterial load in citrate stabilized blood amounted to 1913 colony forming units per milliliter (CFU/ml) (FIG. 15). SPION^APTES-SBA-SPP04 particles reduced the concentration to 927 CFU/ml in citrate-stabilized blood. […] For completeness, in EDTA-stabilized blood, the amount of CFUs was reduced from 2867 CFU/ml to 1733 CFU/ml by SPION^APTES-SBA-SPP04. Thus, a reduction of around 40% was achieved.
In this experiment we used blood from health volunteers and added an amount of bacteria to it. A concentration of 0.3 mg Fe/ml was used for the particles. To 0.8 ml of blood, (citrate or EDTA stabilized) 0.1 bacteria suspension in Ringer's solution have been added. After 5 min. of incubation, 0.1 ml of particles (3 mg Fe/ml) in Ringer's solution have been added. Samples were incubated for 5 minutes on a shaker at 700 rpm. After incubation, the particles have been removed by placing a magnet (310 mT) behind the samples. After 3 min separation of the particles the supernatant were plated out. As a negative control only 0.2 ml Ringer's solution was added to blood. The positive control consisted of 0.8 ml blood and 0.1 ml bacteria suspension and another 0.1 ml Ringer's solution. In addition the particles were washed one time after separation and then redispersed in Ringer's solution and plated out.
After 16 h of incubation, the CFUs (colony forming units) on the plates have been counted. The samples have been compared to the amount found in the positive control.

bacteria = test: Concentration of viable bacteria (10 ml sample, plating); assay type: cell-based; conditions: 0.3 mg Fe/ml, 30 minutes, 310 mT 3 minutes, 10 ml to 0.5 ml
Method: In this experiment, an approach as used with common blood cultures in order to identify pathogens was chosen. The total volume was set to 10 ml. The bacterial suspension was adjusted to an OD (measured at 600 nm) of 0.13 with Ringer's solution analogous to the previous experiments. A sample, which was not treated with SPIONs, served as a control. A concentration of 0.3 mg Fe/ml SPION^APTES-SBA-SPP04 was used. Incubation was performed for 30 minutes at room temperature on a rolling incubator. The particles were then magnetically separated for 3 minutes at 310 mT. 0.5 ml Ringer's solution was added to the particle pellets and vortexed. […] A total of 50 μl was plated out for each sample. […] Compared to common blood cultures, bacterial pathogens can be detected faster by using this method, because the amplification step of the bacteria using blood culture bottles could be omitted.

SPION^APTES-SBA-SPP19: APTES-coated SPIONs linked via SBA to peptide SPP19 (SEQ ID NO: 2) (RKQGRVEILYRGSWGTVC; also: conjugated via SBA linker to APTES-coated SPIONs)
reduction of LTA [1]: 29% | LTA bound [1]: 0.97 ng/mL | Staphylococcus aureus after separation (Staphylococcus aureus): 73 CFU/ml | CFU of re-plated bacteria loaded particles (Staphylococcus aureus): in the range of the positive control | Pseudomonas aeruginosa after separation (Pseudomonas aeruginosa): 7 CFU/ml

SPION^APTES-SBA-SPP04: APTES-coated SPIONs linked via SBA to peptide SPP04 (SEQ ID NO: 1) (RKQGRVEVLYRASWGTVC; also: conjugated via SBA linker to APTES-coated SPIONs)
particle diameter after functionalization with peptide [2]: 2.54 μm | binding of LPS ([3]; 0.01 mg Fe/ml (FIG. 8C, D)): about 50% | reduction / binding of LPS, all LPS types ([3]; 0.01 mg Fe/ml, 3 seconds): at least 40% | reduction of LPS, all three LPS types ([3]; 0.01 mg Fe/ml, 30 seconds): at least 48% | LPS bound ([3]; 1 mg Fe/ml, 3 s): 94% | remaining LPS ([3]; 1 mg Fe/ml, 3 s): up to 6% | LPS removal ([3]; 1 mg Fe/ml, 30 s of agitation): completely removed the LPS below the detection limit; also recorded: completely removed the endotoxin below the detection limit | reduction of LTA [1]: 30% | LTA bound [1]: 0.75 ng/mL | remaining micromer^LPS [4]: 0.023 mg/mL | E. coli in supernatant (E. coli [5]; 0.1 mg Fe/ml): 170 CFUs | E. coli in supernatant (E. coli [5]; 1.0 mg Fe/ml): 2 CFU/ml | Staphylococcus aureus after separation (Staphylococcus aureus): 27 CFU/ml | CFU of re-plated bacteria loaded particles (Staphylococcus aureus): in the range of the positive control; also recorded: even increased | Pseudomonas aeruginosa after separation (Pseudomonas aeruginosa): 2 CFU/ml | Serratia marcescens after separation (Serratia marcescens; from 1300 CFU/ml, 0.3 mg Fe/ml): 26 CFU/ml | recovery from redispersed, plated particles (Serratia marcescens; re-plating, Serratia marcescens): 1227 CFU/ml | replating of extracted bacteria (E. coli [6]; EDTA-stabilized blood): 1066 CFU/ml | reduction of bacterial load (E. coli [6]; EDTA-stabilized blood, 0.3 mg Fe/ml): around 40% | E. coli remaining in blood (E. coli [6]; EDTA-stabilized blood, from 2867 CFU/ml, 0.3 mg Fe/ml): 1733 CFU/ml | replating of extracted bacteria (E. coli [6]; citrate-stabilized blood): 913 CFU/ml | E. coli remaining in blood (E. coli [6]; citrate-stabilized blood, from 1913 CFU/ml, 0.3 mg Fe/ml): 927 CFU/ml | plating of sample concentrated with SPIONs (bacteria): dense bacterial lawn
